Data set [1] concerns the target T1, human Nav1.5 channel (Homo sapiens, UniProt Q14524).
T1 construct: expressed in transfected cells; host or cells: HEK cells
In words: NaV1.5 sodium channel screening assay, PatchXpress automated electrophysiology, cardiac action potential waveform 1 Hz. The note with it: cardiac action potential waveform at 1 Hz; HEK cells; read-out: HNAv 1.5 Cardiac AP 1 Hz IC50. The data set is classed as cell-based. The method, then: Inhibition of the TTX-resistant NaV1.5 sodium channel, a key cardiac ion channel, can have profound effects on the duration and amplitude of the cardiac action potential and can result in arrhythmias and other heart malfunctions. To assess the potential cardiac liability of compounds at an early stage in the drug discovery process, a NaV1.5 sodium channel screening assay is performed on Molecular Device's PatchXpress™ automated electrophysiology platform. Under voltage-calmp conditions, NaV1.5 currents were recorded from HEK cells expressing the human Nav1.5 channel in the absence and presence of increasing concentrations of the test compound to obtain an IC50 value. The external recording solution contained (in mM): 90 TEACl, 50 NaCl, 1.8 CaCl, 1 MgCl2, 10 HEPES, 10 glucose, adjusted to pH 7.4 with TEA-OH and to 300 mOsm with sucrose (if necessary), while the internal patch pipette solution contained (in mM): 129 CsF, 2 MgCl2, 11 EGTA, 10 HEPES, 3 Na2ATP adjusted to pH 7.2 with CsOH and to 290 mOsm with sucrose (if necessary). NaV1.5 channel currents were evoked using a cardiac action potential waveform at 1 Hz, digitized at 31.25 kHz and low-pass filtered at 12 kHz.

Data set [2] deals with Rat SNL tactile allodynia. In words: L5/L6 spinal nerve ligation (SNL) Chung pain model, tactile allodynia (von Frey). The data set is classed as in vivo. The text has this:
The Spinal Nerve Ligation is an animal model representing peripheral nerve injury generating a neuropathic pain syndrome. In this model experimental animals develop the clinical symptoms of tactile allodynia and hyperalgesia. L5/L6 Spinal nerve ligation (SNL) injury was induced using the procedure of Kim and Chung (Kim et al., Pain 50:355-363 (1992)) in male Sprague-Dawley rats (Harlan; Indianapolis, Ind.) weighing 200 to 250 grams.
Anaesthesia was induced with 2% isofluorane in O2 at 2 L/min and maintained with 0.5% isofluorane in O2. Rats were then shaved and aseptically prepared for surgeries. A 2 cm paraspinal incision was made at the level of L4-S2. L4/L5 was exposed by removing the transverse process above the nerves with a small rongeur. The L5 spinal nerve is the larger of the two visible nerves below the transverse process and lies closest to the spine. The L6 spinal nerve is located beneath the corner of the slope bone. A home-made glass Chung rod was used to hook L5 or L6 and a pre-made slip knot of 4.0 silk suture was placed on the tip of the rod just above the nerve and pulled underneath to allow for the tight ligation. The L5 and L6 spinal nerves were tightly ligated distal to the dorsal root ganglion. The incision was closed, and the animals were allowed to recover for 5 days.
Sham control rats underwent the same operation and handling as the experimental animals, but without SNL.
Prior to initiating drug delivery, baseline behavioural testing data is obtained. At selected times after infusion of the Test or Control Article behavioural data can then be collected again.
The assessment of tactile allodynia consisted of measuring the withdrawal threshold of the paw ipsilateral to the site of nerve injury in response to probing with a series of calibrated von Frey filaments (innocuous stimuli). Animals were acclimated to the suspended wire-mesh cages for 30 min before testing. Each von Frey filament was applied perpendicularly to the plantar surface of the ligated paw of rats for 5 sec. A positive response was indicated by a sharp withdrawal of the paw. For rats, the first testing filament is 4.31. Measurements were taken before and after administration of test articles. […] The protocol was repeated until three changes in behaviour were determined (“up and down” method) (Chaplan et al., J. Neurosci. Methods 53:55-63 (1994)). The 50% paw withdrawal threshold was determined as (10^[Xf+kδ])/10,000, where Xf=the value of the last von Frey filament employed, k=Dixon value for the positive/negative pattern, and S=the logarithmic difference between stimuli. The cut-off values for rats were no less than 0.2 g and no higher than 15 g (5.18 filament); for mice no less than 0.03 g and no higher than 2.34 g (4.56 filament). A significant drop of the paw withdrawal threshold compared to the pre-treatment baseline is considered tactile allodynia. […]

Data set [3] has as its system seizures induced by 6 Hz corneal stimulation in CF1 mice. Description: 6 Hz psychomotor seizure model of partial epilepsy. The conditions noted are these: 32 mA; for ED50: Mus musculus. Also noted: Epilepsy 6 Hz (% protected): concentration or dose not given beside the values. It counts as in vivo, mouse. The method, then: Compounds were evaluated for the protection against seizures induced by a 6 Hz, 0.2 ms rectangular pulse width of 3 s duration, at a stimulus intensity of 32 mA (CC97) applied to the cornea of male CF1 mice (20-30 g) according to procedures described by Barton et al, “Pharmacological Characterization of the 6 Hz Psychomotor Seizure Model of Partial Epilepsy,” Epilepsy Res. 47(3):217-27 (2001). Seizures are characterised by the expression of one or more of the following behaviours: stun, forelimb clonus, twitching of the vibrissae and Straub-tail immediately following electrical stimulation.

For data set [4], the system named is mice on rotarod. In words: Mouse rotarod assay (minimal muscular or neurological impairment). The data set is classed as in vivo. The method, then: To assess a compound's undesirable side effects (toxicity), animals were monitored for overt signs of impaired neurological or muscular function. In mice, the rotarod procedure (Dunham and Miya, J. Am. Pharmacol. Assoc. 46:208-209 (1957)) is used to disclose minimal muscular or neurological impairment (MMI). When a mouse is placed on a rod that rotates at a speed of 6 rpm, the animal can maintain its equilibrium for long periods of time. The animal is considered toxic if it falls off this rotating rod three times during a 1-min period.

The nature of data set [5]: Rat Early Pharmacokinetic (EPK) study. The data set is classed as in vivo. The note with it: PO, 3 mg/kg, formulation PG (propylene glycol); for Tmax: male, Sprague-Dawley, blood. The protocol: Male Sprague-Dawley rats were dosed via oral (PO) gavage in the detailed formulation. Blood samples were collected from the animals at 6 timepoints out to 4 hours post-dose. Pharmacokinetic analysis was performed on the LC-MS/MS measured concentrations for each timepoint of each compound.

These results are taken from patent US20120220603A1, “SUBSTITUTED HETEROCYCLIC DERIVATIVES FOR THE TREATMENT OF PAIN AND EPILEPSY” (ZALICUS PHARMACEUTICALS LTD., priority 2009, published 2012).

T1 sequence (Q14524 whole entry): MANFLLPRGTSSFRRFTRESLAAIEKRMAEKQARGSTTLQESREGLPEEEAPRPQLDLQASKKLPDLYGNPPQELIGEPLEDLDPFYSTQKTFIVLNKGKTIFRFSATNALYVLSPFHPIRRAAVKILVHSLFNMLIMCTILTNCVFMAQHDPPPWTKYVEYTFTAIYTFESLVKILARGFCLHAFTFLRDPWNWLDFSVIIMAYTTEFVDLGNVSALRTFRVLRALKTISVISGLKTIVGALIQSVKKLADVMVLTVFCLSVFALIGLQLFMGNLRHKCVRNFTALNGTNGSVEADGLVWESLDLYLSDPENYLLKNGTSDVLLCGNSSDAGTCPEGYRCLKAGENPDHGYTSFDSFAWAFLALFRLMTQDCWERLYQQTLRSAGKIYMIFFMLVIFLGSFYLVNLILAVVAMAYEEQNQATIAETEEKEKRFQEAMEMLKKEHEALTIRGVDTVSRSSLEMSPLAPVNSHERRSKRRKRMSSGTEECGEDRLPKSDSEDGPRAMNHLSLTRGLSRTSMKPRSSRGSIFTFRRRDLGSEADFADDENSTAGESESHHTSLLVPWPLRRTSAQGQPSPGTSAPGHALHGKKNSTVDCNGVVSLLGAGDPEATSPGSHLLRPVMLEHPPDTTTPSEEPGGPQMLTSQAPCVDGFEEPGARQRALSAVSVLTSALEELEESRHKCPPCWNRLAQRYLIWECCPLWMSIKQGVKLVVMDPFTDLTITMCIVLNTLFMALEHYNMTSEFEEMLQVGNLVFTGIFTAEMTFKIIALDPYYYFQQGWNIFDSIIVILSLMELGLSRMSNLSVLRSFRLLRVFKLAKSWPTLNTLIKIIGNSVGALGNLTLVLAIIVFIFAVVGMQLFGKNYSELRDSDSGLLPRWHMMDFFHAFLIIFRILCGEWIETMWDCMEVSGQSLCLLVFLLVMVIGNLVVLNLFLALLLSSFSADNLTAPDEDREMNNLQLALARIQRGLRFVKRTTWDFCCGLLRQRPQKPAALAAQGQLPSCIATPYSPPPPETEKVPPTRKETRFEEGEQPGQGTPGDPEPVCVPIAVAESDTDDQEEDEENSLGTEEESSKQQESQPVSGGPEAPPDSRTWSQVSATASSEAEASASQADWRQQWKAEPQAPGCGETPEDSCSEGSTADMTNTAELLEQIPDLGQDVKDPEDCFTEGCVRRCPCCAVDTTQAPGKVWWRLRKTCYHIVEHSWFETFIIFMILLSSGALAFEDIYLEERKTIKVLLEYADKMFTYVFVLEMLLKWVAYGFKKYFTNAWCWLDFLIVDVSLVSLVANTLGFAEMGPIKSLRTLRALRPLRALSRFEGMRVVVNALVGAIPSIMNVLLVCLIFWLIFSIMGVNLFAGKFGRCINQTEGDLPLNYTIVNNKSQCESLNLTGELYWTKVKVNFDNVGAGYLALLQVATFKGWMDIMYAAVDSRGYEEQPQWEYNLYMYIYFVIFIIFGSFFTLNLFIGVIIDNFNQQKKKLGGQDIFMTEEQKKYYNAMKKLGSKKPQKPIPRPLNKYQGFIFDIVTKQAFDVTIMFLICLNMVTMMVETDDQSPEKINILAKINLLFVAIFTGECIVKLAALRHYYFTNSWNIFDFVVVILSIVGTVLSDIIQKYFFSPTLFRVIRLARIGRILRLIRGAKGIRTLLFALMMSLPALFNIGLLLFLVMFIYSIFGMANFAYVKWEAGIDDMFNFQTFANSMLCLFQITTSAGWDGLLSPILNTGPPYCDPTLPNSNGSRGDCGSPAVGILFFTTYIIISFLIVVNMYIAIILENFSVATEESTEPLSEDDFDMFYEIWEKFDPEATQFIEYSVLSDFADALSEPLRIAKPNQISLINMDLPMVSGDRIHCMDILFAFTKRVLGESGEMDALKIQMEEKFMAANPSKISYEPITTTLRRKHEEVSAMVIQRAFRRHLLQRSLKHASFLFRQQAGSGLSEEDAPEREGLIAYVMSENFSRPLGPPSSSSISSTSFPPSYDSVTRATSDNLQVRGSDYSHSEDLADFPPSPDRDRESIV

Broadly, the IC50 is the concentration at which inhibition is half-maximal. As a reminder, the ED50 is the dose that gives a 50% effect, or the effect in half of the subjects. What is called Tmax is the time from dosing to the highest level. On to `O=C1CN(CC(=O)Nc2cc(C(F)(F)F)cc(C(F)(F)F)c2)CCN1` [Compound 9, N-(3,5-bis(trifluoromethyl)phenyl)-2-(3-oxopiperazin-1-yl)acetamide], for which, in data set [1], the IC50 was found to be 80 µM. In addition, the “Rat SNL Tactile Allodynia (% Antiallodynia)” value in data set [2] (1 hour) came out at 36%. Moreover, the “Anti-allodynia in rat SNL tactile allodynia (in words)” value in data set [2] (at 60 minutes compared to baseline and post-SNL) is reported as “significant anti-allodynia”. Moreover, the “Epilepsy 6 Hz (% protected)” value is given as 75% in data set [3] (0.25 hr); 25% in data set [3] (0.5 hr); 88% in data set [3] (1 hr); 75% in data set [3] (2 hr); 0% in data set [3] (4 hr). In data set [3], this compound gave an ED50 of 90 mg/kg. Moreover, the “% Impaired” value in data set [4] (0.25 hr), in data set [4] (0.5 hr), in data set [4] (1 hr), in data set [4] (2 hr) and in data set [4] (4 hr) was 0% each time. In addition, the “Dose Normalized AUC” value in data set [5] is reported as 1,120 nM*h. Further, in data set [5], the “Dose Normalized Cmax” value turned out to be 484 nM. Besides, the Tmax in data set [5] stood at 84 min.

For the compound `O=C(CN1CCNCC1=O)Nc1cc(C(F)(F)F)cc(C(F)(F)F)c1` [Compound 1, N-(3,5-bis(trifluoromethyl)phenyl)-2-(2-oxopiperazin-1-yl)acetamide], the IC50 in data set [1] is 100 µM. Besides, the “Rat SNL Tactile Allodynia (% Antiallodynia)” value in data set [2] (1 hour) came to 52%; in data set [2] (2 hours) it was 55%; in data set [2] (4 hours), 37%. Besides, the “Epilepsy 6 Hz (% protected)” value in data set [3] (0.25 hr) stood at 75%; in data set [3] (0.5 hr) it was 100%; in data set [3] (1 hr), 75%. The same compound yielded an ED50 in data set [3] of 128 mg/kg. The “% Impaired” value in data set [4] (0.25 hr), in data set [4] (0.5 hr), in data set [4] (1 hr), in data set [4] (2 hr) and in data set [4] (4 hr) was 0% each time. Further, in data set [5], the “Dose Normalized AUC” value is 1,118 nM*h. In addition, the “Dose Normalized Cmax” value in data set [5] worked out at 438 nM. For the same compound, in data set [5], the Tmax is 15 min.
